{"source": "patent US11532406B2", "about": "“High specific activity preparation of F-18 tetrafluoroborate” (Mayo Foundation for Medical Education and Research, priority 2016, dated 2022)", "assay": "Radiation dosimetry estimation (organ residence times, OLINDA)", "assay_type": "in vivo, human", "conditions": "for Residence Time, Bladder: bladder emptying model, 3.5 h voiding period; for Estimated absorbed radiation dose, Urinary Bladder Wall: bladder voiding interval of 3.5 h", "method": "Radiation dosimetry estimates were calculated from organ residence times using OLINDA software (Ver. 1.1), assuming a bladder voiding interval of 3.5 h. Gender-specific organ masses for the conversion of SUV to disintegrations per organ per unit radioactivity administered (Bq-hr/Bq) were taken from Schlein et al. (15).\nBladder residence time was estimated by the bladder emptying model within the OLINDA software, assuming a 3.5 h bladder voiding period. The dose-critical organ is thyroid, with dose estimates of 0.26 and 0.36 mSv/MBq in males and females, respectively. […] Effective dose was higher in females (0.065 mSv/MBq) relative to males (0.036 mSv/MBq).", "note": "Where “and” joins values, the source holds several entries; their conditions need not be identical. Equal entries are not always repeated."}
{"molecule": "F[B-](F)(F)[18F]", "note": "[^18F-TFB, ^18F-tetrafluoroborate]", "values": [{"measurement": "Effective Dose", "setting": "females", "value": "0.065 mSv/MBq and 0.064 mSv/MBq"}, {"measurement": "Estimated absorbed radiation dose, Adrenals", "setting": "females", "value": 0.012, "unit": "mSv/MBq"}, {"measurement": "Estimated absorbed radiation dose, Brain", "setting": "females", "value": 0.005, "unit": "mSv/MBq"}, {"measurement": "Estimated absorbed radiation dose, Breasts", "setting": "females", "value": 0.028, "unit": "mSv/MBq"}, {"measurement": "Estimated absorbed radiation dose, Gallbladder Wall", "setting": "females", "value": 0.022, "unit": "mSv/MBq"}, {"measurement": "Estimated absorbed radiation dose, Heart Wall", "setting": "females", "value": 0.030, "unit": "mSv/MBq"}, {"measurement": "Estimated absorbed radiation dose, Kidneys", "setting": "females", "value": 0.052, "unit": "mSv/MBq"}, {"measurement": "Estimated absorbed radiation dose, Liver", "setting": "females", "value": 0.033, "unit": "mSv/MBq"}, {"measurement": "Estimated absorbed radiation dose, Lower Large Intestine Wall", "setting": "females", "value": 0.015, "unit": "mSv/MBq"}, {"measurement": "Estimated absorbed radiation dose, Lungs", "setting": "females", "value": 0.014, "unit": "mSv/MBq"}, {"measurement": "Estimated absorbed radiation dose, Muscle", "setting": "females", "value": 0.011, "unit": "mSv/MBq"}, {"measurement": "Estimated absorbed radiation dose, Osteogenic Cells", "setting": "females", "value": 0.009, "unit": "mSv/MBq"}, {"measurement": "Estimated absorbed radiation dose, Ovaries", "setting": "females", "value": 0.020, "unit": "mSv/MBq"}, {"measurement": "Estimated absorbed radiation dose, Pancreas", "setting": "females", "value": 0.043, "unit": "mSv/MBq"}, {"measurement": "Estimated absorbed radiation dose, Red Marrow", "setting": "females", "value": 0.008, "unit": "mSv/MBq"}, {"measurement": "Estimated absorbed radiation dose, Skin", "setting": "females", "value": 0.004, "unit": "mSv/MBq"}, {"measurement": "Estimated absorbed radiation dose, Small Intestine Wall", "setting": "females", "value": 0.066, "unit": "mSv/MBq"}, {"measurement": "Estimated absorbed radiation dose, Spleen", "setting": "females", "value": 0.047, "unit": "mSv/MBq"}, {"measurement": "Estimated absorbed radiation dose, Stomach Wall", "setting": "females", "value": 0.184, "unit": "mSv/MBq"}, {"measurement": "Estimated absorbed radiation dose, Thymus", "setting": "females", "value": 0.005, "unit": "mSv/MBq"}, {"measurement": "Estimated absorbed radiation dose, Thyroid", "setting": "females", "value": 0.36, "unit": "mSv/MBq"}, {"measurement": "Estimated absorbed radiation dose, Total Body", "setting": "females", "value": 0.011, "unit": "mSv/MBq"}, {"measurement": "Estimated absorbed radiation dose, Upper Large Intestine Wall", "setting": "females", "value": 0.109, "unit": "mSv/MBq"}, {"measurement": "Estimated absorbed radiation dose, Uterus", "setting": "females", "value": 0.022, "unit": "mSv/MBq"}, {"measurement": "Residence Time, Bone", "setting": "females", "value": "3.1 ± 0.3", "unit": "min"}, {"measurement": "Residence Time, Brain", "setting": "females", "value": "1.3 ± 0.2", "unit": "min"}, {"measurement": "Residence Time, Breast", "setting": "females", "value": "2.8 ± 0.9", "unit": "min"}, {"measurement": "Residence Time, Gallbladder", "setting": "females", "value": "0.09 ± 0.04", "unit": "min"}, {"measurement": "Residence Time, Intestines", "setting": "females", "value": "13 ± 7", "unit": "min"}, {"measurement": "Residence Time, Kidney", "setting": "females", "value": "3.9 ± 0.8", "unit": "min"}, {"measurement": "Residence Time, Liver", "setting": "females", "value": "10 ± 2", "unit": "min"}, {"measurement": "Residence Time, Lung", "setting": "females", "value": "2.4 ± 0.2", "unit": "min"}, {"measurement": "Residence Time, Muscle", "setting": "females", "value": "26 ± 8", "unit": "min"}, {"measurement": "Residence Time, Myocardium", "setting": "females", "value": "1.8 ± 0.3", "unit": "min"}, {"measurement": "Residence Time, Pancreas", "setting": "females", "value": "0.58 ± 0.08", "unit": "min"}, {"measurement": "Residence Time, Parotid", "setting": "females", "value": "3.3 ± 1.2", "unit": "min"}, {"measurement": "Residence Time, Spleen", "setting": "females", "value": "1.6 ± 0.2", "unit": "min"}, {"measurement": "Residence Time, Stomach", "setting": "females", "value": "24 ± 12", "unit": "min"}, {"measurement": "Residence Time, Thyroid", "setting": "females", "value": "2.3 ± 0.9", "unit": "min"}, {"measurement": "Residence Time, Bladder", "setting": "females", "value": "19 ± 4", "unit": "min"}, {"measurement": "Estimated absorbed radiation dose, Urinary Bladder Wall", "setting": "females", "value": 0.22, "unit": "mSv/MBq"}, {"measurement": "Effective Dose", "setting": "males", "value": 0.036, "unit": "mSv/MBq"}, {"measurement": "Estimated absorbed radiation dose, Adrenals", "setting": "males", "value": 0.008, "unit": "mSv/MBq"}, {"measurement": "Estimated absorbed radiation dose, Brain", "setting": "males", "value": 0.004, "unit": "mSv/MBq"}, {"measurement": "Estimated absorbed radiation dose, Breasts", "setting": "males", "value": 0.002, "unit": "mSv/MBq"}, {"measurement": "Estimated absorbed radiation dose, Gallbladder Wall", "setting": "males", "value": 0.012, "unit": "mSv/MBq"}, {"measurement": "Estimated absorbed radiation dose, Heart Wall", "setting": "males", "value": 0.024, "unit": "mSv/MBq"}, {"measurement": "Estimated absorbed radiation dose, Kidneys", "setting": "males", "value": 0.049, "unit": "mSv/MBq"}, {"measurement": "Estimated absorbed radiation dose, Liver", "setting": "males", "value": 0.021, "unit": "mSv/MBq"}, {"measurement": "Estimated absorbed radiation dose, Lower Large Intestine Wall", "setting": "males", "value": 0.009, "unit": "mSv/MBq"}, {"measurement": "Estimated absorbed radiation dose, Lungs", "setting": "males", "value": 0.009, "unit": "mSv/MBq"}, {"measurement": "Estimated absorbed radiation dose, Muscle", "setting": "males", "value": 0.008, "unit": "mSv/MBq"}, {"measurement": "Estimated absorbed radiation dose, Osteogenic Cells", "setting": "males", "value": 0.008, "unit": "mSv/MBq"}, {"measurement": "Estimated absorbed radiation dose, Pancreas", "setting": "males", "value": 0.034, "unit": "mSv/MBq"}, {"measurement": "Estimated absorbed radiation dose, Red Marrow", "setting": "males", "value": 0.005, "unit": "mSv/MBq"}, {"measurement": "Estimated absorbed radiation dose, Skin", "setting": "males", "value": 0.003, "unit": "mSv/MBq"}, {"measurement": "Estimated absorbed radiation dose, Small Intestine Wall", "setting": "males", "value": 0.027, "unit": "mSv/MBq"}, {"measurement": "Estimated absorbed radiation dose, Spleen", "setting": "males", "value": 0.033, "unit": "mSv/MBq"}, {"measurement": "Estimated absorbed radiation dose, Stomach Wall", "setting": "males", "value": 0.076, "unit": "mSv/MBq"}, {"measurement": "Estimated absorbed radiation dose, Testes", "setting": "males", "value": 0.005, "unit": "mSv/MBq"}, {"measurement": "Estimated absorbed radiation dose, Thymus", "setting": "males", "value": 0.004, "unit": "mSv/MBq"}, {"measurement": "Estimated absorbed radiation dose, Thyroid", "setting": "males", "value": 0.26, "unit": "mSv/MBq"}, {"measurement": "Estimated absorbed radiation dose, Total Body", "setting": "males", "value": 0.008, "unit": "mSv/MBq"}, {"measurement": "Estimated absorbed radiation dose, Upper Large Intestine Wall", "setting": "males", "value": 0.045, "unit": "mSv/MBq"}, {"measurement": "Residence Time, Bone", "setting": "males", "value": "4.6 ± 1.3", "unit": "min"}, {"measurement": "Residence Time, Brain", "setting": "males", "value": "1.2 ± 0.4", "unit": "min"}, {"measurement": "Residence Time, Gallbladder", "setting": "males", "value": "0.06 ± 0.03", "unit": "min"}, {"measurement": "Residence Time, Intestines", "setting": "males", "value": "5.7 ± 1.9", "unit": "min"}, {"measurement": "Residence Time, Kidney", "setting": "males", "value": "4.2 ± 1.2", "unit": "min"}, {"measurement": "Residence Time, Liver", "setting": "males", "value": "8.3 ± 3.9", "unit": "min"}, {"measurement": "Residence Time, Lung", "setting": "males", "value": "2.1 ± 0.7", "unit": "min"}, {"measurement": "Residence Time, Muscle", "setting": "males", "value": "36 ± 14", "unit": "min"}, {"measurement": "Residence Time, Myocardium", "setting": "males", "value": "2.1 ± 0.6", "unit": "min"}, {"measurement": "Residence Time, Pancreas", "setting": "males", "value": "0.7 ± 0.3", "unit": "min"}, {"measurement": "Residence Time, Parotid", "setting": "males", "value": "1.7 ± 1.1", "unit": "min"}, {"measurement": "Residence Time, Spleen", "setting": "males", "value": "1.5 ± 0.4", "unit": "min"}, {"measurement": "Residence Time, Stomach", "setting": "males", "value": "11 ± 5", "unit": "min"}, {"measurement": "Residence Time, Thyroid", "setting": "males", "value": "2.0 ± 0.7", "unit": "min"}, {"measurement": "Residence Time, Bladder", "setting": "males", "value": "17 ± 2", "unit": "min"}, {"measurement": "Estimated absorbed radiation dose, Urinary Bladder Wall", "setting": "males", "value": 0.14, "unit": "mSv/MBq"}]}
